From patent publication US6258815A, “Specific immunophilin ligands as antiasthmatics and immunosuppressants” (ASTA Medica Aktiengesellschaft, priority 1996, dated 2001)
Entries after “also recorded” stand apart in the source; their conditions may differ.

Legend:
human cyclophilin B = human cyclophilin B (Homo sapiens, UniProt P23284); assay: PPlase test (inhibition of peptidyl-prolyl cis/trans-isomerase activity); format: biochemical; details: Compound [10 μmol], human CypB
Experimental: The compounds of the formula (I) according to the invention are distinguished by binding to immunophilins and inhibit their isomerase activity. This prolyl isomerase activity is assayed by an enzyme test conventionally used throughout the world: G. Fischer, H. Bang, A. Schellenberger, Biochim. Biophys. Acta, 791, 87-97, 1984; D. H. Rich et al., J. Med. Chem. 38, 4164-4170, 1995.
[…] This PPlase activity is assayed by an enzyme test conventionally used throughout the world: G. Fischer, H. Bang, C. Mech, Biomed. Biochim. Acta, 43, 1101-1111; G. Fischer, R. Bang, A. Schellenberger, Biochim. Biophys. Acta, 791, 87-97, 1984; D. H. Rich et al., J. Med. Chem. 38, 4164-4170, 1995.
The compounds of the general formula I according to the invention are preincubated together with 10 nmol of CypB for 15 min at 4° C. The enzyme reaction is started after the addition of chymotrypsin and HEPES buffer with the test peptide Suc-Ala-Ala-Pro-Phe-Nan. The change in extinction at 390 nm is then monitored and evaluated. The change in extinction determined by photometry results from two partial reactions: a) the rapid chymotryptic cleavage of the trans-peptide; and b) the […] cis/trans isomerization catalysed by cyclophilins.

CypB-CsA = assay: displacement of 3H-CsA from CypB-CsA (gel filtration of T cell homogenate); format: binding, human; details: Compound [10 μmol]; 3H-CsA (100 nmol)
Experimental: (§1) To study the interaction with this supermolecule from CsA-CypB or CsA-CypB-calcineurin, the compounds of the general formula I according to the invention were incubated with cell homogenate of a human T cell line containing ^3 H-CsA (100 nmol). After gel filtration on Superose 12, the radioactivity of the eluted fractions was measured and compared with the untreated control. The corresponding displacement of ^3 H-CsA from the supermolecules CypB-CsA and CypB-CsA-calcineurin by the compounds of the general formula I according to the invention is shown in Table 2: […]

CypB-CsA-calcineurin = assay: displacement of 3H-CsA from CypB-CsA-calcineurin (gel filtration of T cell homogenate); format: binding, human; details: Compound [10 μmol]; 3H-CsA (100 nmol)
Experimental: as §1

[1] = tested on: T cells stimulated with OKT-3; assay: IL-2 proliferation test (3H-thymidine incorporation into T cells stimulated with OKT-3); format: cell-based; details: Homo sapiens, T-cell; Compound [10 μmol]; 45 h incubation, OKT-3 1 μg/ml; read-out: CD3-induced inhibition of proliferation in [%]
Experimental: The IL-2 proliferation test is based on the incorporation of ^3 H-thymidine into T cells stimulated with OKT-3 (human anti-CD3 antibodies) and is performed as follows:
100,000 T cells are inoculated into 150 μl of culture medium per well in microtitre plates, stimulated by the addition of OKT-3 (1 μg/ml) and incubated for 45 h with each of the compounds of the general formula I according to the invention. After this incubation period, 10 μl of the ^3 H-thymidine solution (0.5 μCi) are pipetted into each well. Incubation is then carried out for 6 h at 37° C. in a 5% CO2 atmosphere. After the cells have been harvested, the radioactivity is quantified in a β-counter. The corresponding CD3-induced inhibition of proliferation by the compounds of the general formula I according to the invention is shown in Table 3: […]

[2] = tested on: cytokines, like IL-2, IL-4 and IL-5; details: animal experiments; reference substances; cited from earlier work
FKBP = details: cited from earlier work
[3] = tested on: IL-2 gene transcription in T cells; details: cited from earlier work

human cyclophilin B, sequence (P23284 34-216): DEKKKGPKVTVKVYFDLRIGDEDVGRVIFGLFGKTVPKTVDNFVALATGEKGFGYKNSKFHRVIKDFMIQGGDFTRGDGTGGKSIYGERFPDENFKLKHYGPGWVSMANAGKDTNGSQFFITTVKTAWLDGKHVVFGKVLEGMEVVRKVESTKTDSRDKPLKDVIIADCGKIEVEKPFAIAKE

| Compound | inhibition at 10 µM (human cyclophilin B) [%] | Displacement from CypB-CsA in [%] (CypB-CsA) | Displacement from CypB-CsA-CN in [%] (CypB-CsA-calcineurin) | inhibition [1] [%] | blocking of cytokines, like IL-2, IL-4 and IL-5 [2] | binding affinity to receptor protein FKBP (FKBP) | inhibition of gene transcription including the IL-2 gene [3] |
| --- | --- | --- | --- | --- | --- | --- | --- |
| CC(C)(C)OC(=O)N1CCC(C(=O)N2c3ccccc3CC2C(=O)N2CCN(CC(=O)N3CCOCC3)CC2)CC1 (racemic) [Example 12, N-[1-Boc-piperidyl-4-carbonyl]indoline-2-(R,S)-carboxylic acid (piperazinoacetic acid morpholide)amide] | 0 to 20 | 8 | -25 | 5 |  |  |  |
| COC(=O)C1Cc2ccccc2N1C(=O)Cc1ccc(OC)cc1 (racemic) [Example 9, N-(4-methoxyphenylacetyl)indoline-2-(R,S)-carboxylic acid methyl ester] | 0 to 20 | 39 | 37 |  |  |  |  |
| COC(=O)[C@H](CCCCNC(=O)OC(C)(C)C)NC(=O)C1Cc2ccccc2N1C(=O)C1Cc2ccccc2N1C(=O)OC(C)(C)C (stereo partly drawn) [Example 3, N-[1-Boc-indoline-2-(R,S)-carbonyl]indoline-2-(R,S)-carboxylic acid [S-(N-ε-Boc)lysinemethyl ester]amide] | 0 to 20 | 14 | 22 | 82 |  |  |  |
| COC(=O)[C@H](CCCCNC(=O)OCc1ccccc1)NC(=O)C1Cc2ccccc2N1C(=O)C1CCN(C(=O)Cc2ccc(OC)cc2)CC1 (stereo partly drawn) [Example 13, N-[N'-(4-methoxyphenylacetyl)piperidyl-4-carbonyl]indoline-2-(R,S)-carboxylic acid [S-(N-ε-Z)lysinemethyl ester]amide] | 0 to 20 | 46 | -16 | 66 |  |  |  |
| COC(=O)[C@H](CCCCNC(=O)OC(C)(C)C)NC(=O)C1Cc2ccccc2N1C(=O)C1CCN(C(=O)OC(C)(C)C)CC1 (stereo partly drawn) [Example 1, N-[1-Boc-piperidyl-4-carbonyl]indoline-2-(R,S)-carboxylic acid [S-(N-ε-Boc)lysinemethyl ester]amide] | 0 to 20 | 10 | 45 | 86 |  |  |  |
| CO[C@H]1C[C@@H]2CC[C@@H](C)[C@@](O)(O2)C(=O)C(=O)N2CCCC[C@H]2C(=O)O[C@H]([C@H](C)C[C@@H]2CC[C@@H](O)[C@H](OC)C2)CC(=O)[C@H](C)/C=C(\C)[C@@H](O)[C@@H](OC)C(=O)[C@H](C)C[C@H](C)/C=C/C=C/C=C/1C [rapamycin] |  |  |  |  | exhibit the blocking of cytokines, like IL-2, IL-4 and IL-5 |  |  |
| C=CC[C@@H]1/C=C(\C)C[C@H](C)C[C@H](OC)[C@H]2O[C@@](O)(C(=O)C(=O)N3CCCC[C@H]3C(=O)O[C@H](/C(C)=C/[C@@H]3CC[C@@H](O)[C@H](OC)C3)[C@H](C)[C@@H](O)CC1=O)[C@H](C)C[C@@H]2OC [FK 506] |  |  |  |  | blocking of various cytokines, like IL-2, IL-4 and IL-5; also recorded: exhibit the blocking of cytokines, like IL-2, IL-4 and IL-5 | bind with high affinity | inhibit the transcription of a number of genes, including the IL-2 gene |
| CC(C)(C)OC(=O)N1c2ccccc2CC1C(=O)Nc1ccncc1 (racemic) [Example 10] | 0 to 20 | -58 | 0 | 6 |  |  |  |
| COC(=O)[C@H](CCCCNC(=O)OCc1ccccc1)NC(=O)C1Cc2ccccc2N1C(=O)C1Cc2ccccc2N1C(=O)OC(C)(C)C (stereo partly drawn) [Example 5, N-[1-Boc-indoline-2-(R,S)-carbonyl]indoline-2-(R,S)-carboxylic acid [S-(N-ε-Z)lysinemethyl ester]amide] | 0 to 20 | 16 | 20 | 92 |  |  |  |
| COC(=O)[C@H](CCCCNC(=O)OCc1ccccc1)NC(=O)C1Cc2ccccc2N1C(=O)OC(C)(C)C (stereo partly drawn) [Example 6, 1-Boc-indoline-2-(R,S)-carboxylic acid [S-(N-ε-Z)lysinemethyl ester]amide] | 20 to 40 | 0 | 7 | 84 |  |  |  |
| CC(C)(C)OC(=O)N1c2ccccc2CC1C(=O)N1CCN(CC(=O)N2CCOCC2)CC1 (racemic) [Example 11, N-Boc-indoline-2-(R,S)-carboxylic acid (piperazinoacetic acid morpholide)amide] | 0 to 20 | -28 | 0 | 9 |  |  |  |
| COC(=O)[C@H](Cc1ccccc1)NC(=O)C1Cc2ccccc2N1C(=O)OC(C)(C)C (stereo partly drawn) [Example 7, 1-Boc-indoline-2-(R,S)-carboxylic acid (S-phenylalanine methyl ester)amide] | 0 to 20 | 38 | 0 | 7 |  |  |  |
| COC(=O)[C@H](CCCCN)NC(=O)C1Cc2ccccc2N1C(=O)C1CCNCC1 (stereo partly drawn) [Example 2, N-[piperidyl-4-carbonyl]indoline-2-(R,S)-carboxylic acid [S-(ε-NH2)lysinemethyl ester]amide] | 0 to 20 | 45 | -53 | 40 |  |  |  |
| COC(=O)[C@H](CCCCN)NC(=O)C1Cc2ccccc2N1C(=O)C1Cc2ccccc2N1 (stereo partly drawn) [Example 4, N-[indoline-2-(R,S)-carbonyl]indoline-2-(R,S)-carboxylic acid [S-(ε-NH2)lysinemethyl ester]amide] | 0 to 20 | 33 | -42 | 38 |  |  |  |
| COC(=O)C1Cc2ccccc2N1C(=O)C1CCN(C(=O)Cc2ccc(OC)cc2)CC1 (racemic) [Example 8, N-[N'-(4-methoxyphenylacetyl)piperidyl-4-carbonyl]indoline-2-(R,S)-carboxylic acid methyl ester] | 0 to 20 | 0 | 8 |  |  |  |  |
